From patent US20120095036A1, “NOVEL SUBSTITUTED INDAZOLE AND AZA-INDAZOLE DERIVATIVES AS GAMMA SECRETASE MODULATORS” (priority 2009, published 2012)

Key:
[1] = tested on: Notch-processing activity of the γ-secretase-complex; assay: Notch cell-free assay (NICD production from recombinant Notch substrate N99); format: biochemical, mouse; conditions: 1 nM of a test compound, 37° C. for 6 to 22 h, western blotting
Method: The Notch transmembrane domain is cleaved by gamma secretase to release Notch Intracellular C-terminal Domain (NICD).
To monitor the effect of compounds on NICD production, a recombinant Notch substrate (N99) was prepared. The Notch substrate, comprised of mouse Notch fragment (V1711-E1809), an N-terminal methionine and a C-terminal FLAG sequence ([…]), was expressed in E. coli and purified on a column containing an anti-FLAG M2 affinity matrix.
A typical Notch cell-free assay consisted of 0.3-0.5 nM Notch substrate, an enriched preparation of gamma secretase and 1 nM of a test compound (compound 45 of the present invention). Controls included a gamma secretase inhibitor (GSI), such as (2S)-N-[2-(3,5-difluorophenyl)acetyl]-L-alanyl-2-phenyl-glycine 1,1-dimethylethyl ester (DAPT) or (2S)-2-hydroxy-3-methyl-N-[(1S)-1-methyl-2-oxo-2-[[(1S)-2,3,4,5-tetrahydro-3-methyl-2-oxo-1H-3-benzazepin-1-yl]amino]ethyl]-butanamide (Semagacestat), and DMSO, the final concentration of DMSO being 1%. Recombinant Notch substrate was pre-treated with 17 μM DTT (1,4-dithiothreitol) and 0.02% SDS (Sodium Dodecyl Sulfate) and heated at 65° C. for 10 min. The mixture of substrate, gamma secretase and compound/DMSO was incubated at 37° C. for 6 to 22 hours (h). Six-hour incubation was sufficient to produce the maximal amount of NICD and the cleaved product remained stable for an additional 16 h. Reaction products were processed for SDS PAGE (Sodium Dodecyl Sulfate—Poly Acrylamide Gel Electrophoresis) and western blotting. Blots were probed with an anti-Flag M2 antibody, followed by LI-COR infrared secondary antibody, and analyzed with the Odyssey Infrared Imaging System (LI-COR® Biosciences).

Aβtotal [2] = assay: Method 1: Aβtotal sandwich ELISA on media of SKNBE2 cells carrying APP 695 wild type; format: cell-based; conditions: Homo sapiens, SKNBE2 cells APP 695 wild type, 18 hours
Procedure, shortened: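 SKNBE2 cells expressing wild-type APP695 treated with compound for 18 h in Ultraculture; secreted Aβtotal measured by 6E10-capture/biotinylated 4G8 sandwich ELISA with fluorogenic peroxidase read-out. IC50 from 4-parameter fit, top/bottom fixed at 100/0, Hill slope 1; toxicity checked by WST-1.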

Aβ42 [3] = assay: Method 1: Aβ42 sandwich ELISA on media of SKNBE2 cells carrying APP 695 wild type (γ-secretase-modulating activity); format: cell-based; conditions: Homo sapiens, SKNBE2 cells APP 695 wild type, 18 hours
Procedure, shortened: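 SKNBE2 cells expressing wild-type APP695 exposed to compounds for 18 h in Ultraculture with 1% glutamine. Secreted Aβ42 in media quantified by sandwich ELISA (C-terminal capture, biotinylated 3D6 detection, TMB, 450 nm). IC50 from 4-parameter fit, top/bottom fixed 100/0, Hill slope fixed 1; toxicity checked by WST-1.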

Aβ42 [4] = assay: Method 2: Aβ42 Alphalisa on supernatant of SKNBE2 cells carrying APP 695 wild type; format: cell-based; conditions: Homo sapiens, SKNBE2 cells APP 695 wild type, overnight
Procedure, shortened: (§1)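 SKNBE2 cells expressing wild-type APP695 (10^4/well) were incubated overnight at 37 °C with compound at several concentrations. Secreted Aβ42 (C-terminal/N-terminal antibody pair) and Aβtotal (N-terminal/4G8 pair) were measured by AlphaLISA in the supernatant. IC50 values came from 4-parameter fits of percent of untreated control.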

Aβtotal [5] = assay: Method 2: Aβtotal Alphalisa on supernatant of SKNBE2 cells carrying APP 695 wild type; format: cell-based; conditions: Homo sapiens, SKNBE2 cells APP 695 wild type, overnight
Procedure, shortened: as §1

Aβtotal [6] = assay: In vivo efficacy: Aβtotal in brain (ELISA); design: species or system mouse; conditions: brain soluble fraction; typical protocol: single oral dose, overnight fasted animals, after four hours
Excerpt: (§2) To determine whether acute administration of an Aβ42 lowering agent would reduce Aβ42 levels in vivo, non-transgenic rodents, e.g. mice or rats were used. Alternatively, two to three month old Tg2576 mice expressing APP695 containing the “Swedish” variant can be used or a transgenic mouse model developed by Dr. Fred Van Leuven (K.U.Leuven, Belgium) and co-workers, with neuron-specific expression of a clinical mutant of the human amyloid precursor protein [V717I] (Moechars et al., 1999 J. Biol. Chem. 274, 6483). Young transgenic mice have high levels of Aβ in the brain but no detectable Aβ deposition. At approximately 6-8 months of age, the transgenic mice start to display spontaneous, progressive accumulation of β-amyloid (A13) in the brain, eventually resulting in amyloid plaques within the subiculum, hippocampus and cortex. Animals treated with the Aβ42 lowering agent were examined and compared to those untreated or treated with vehicle and brain levels of soluble Aβ42 and total Aβ would be quantitated by standard techniques, for example, using ELISA. Treatment periods varied from hours to days and were adjusted based on the results of the Aβ42 lowering once a time course of onset of effect could be established.
(§3) A typical protocol for measuring Aβ42 lowering in vivo is shown but it is only one of many variations that could be used to optimize the levels of detectable Aβ. For example, Aβ42 lowering compounds were formulated in 20% of Captisol® (a sulfobutyl ether of β-cyclodextrin) in water or 20% hydroxypropyl β cyclodextrin. The Aβ42 lowering agents were administered as a single oral dose or by any acceptable route of administration to overnight fasted animals. After four hours, the animals were sacrificed and Aβ42 levels were analysed.
(§4) Blood was collected by decapitation and exsanguinations in EDTA-treated collection tubes. Blood was centrifuged at 1900 g for 10 minutes (min) at 4° C. and the plasma recovered and flash frozen for later analysis. The brain was removed from the cranium and hindbrain. The cerebellum was removed and the left and right hemisphere were separated. The left hemisphere was stored at −18° C. for quantitative analysis of test compound levels. The right hemisphere was rinsed with phosphate-buffered saline (PBS) buffer and immediately frozen on dry ice and stored at −80° C. until homogenization for biochemical assays.
(§5) Mouse brains were resuspended in 10 volumes of 0.4% DEA (diethylamine)/50 mM NaCl pH 10 (for non-transgenic animals) or 0.1% 3-[(3-cholamidopropyl)-dimethyl-ammonio]-1-propanesulfonate (CHAPS) in tris buffered saline (TBS) (for transgenic animals) containing protease inhibitors (Roche-11873580001 or 04693159001) per gram of tissue, e.g. for 0.158 g brain, add 1.58 ml of 0.4% DEA. All samples were sonicated for 30 sec on ice at 20% power output (pulse mode). Homogenates were centrifuged at 221.300×g for 50 min. The resulting high speed supernatants were then transferred to fresh tubes and were optionally further purified before the next step. A portion of the supernatant was neutralized with 10% 0.5 M Tris-HCl and this was used to quantify Aβtotal.
(§6) The obtained supernatants were purified with Water Oasis HLB reverse phase columns (Waters Corp., Milford, Mass.) to remove non-specific immunoreactive material from the brain lysates prior subsequent Aβ detection. Using a vacuum manifold, all solutions were passed through the columns at a rate of approximately 1 ml/min, so the vacuum pressure was adjusted accordingly throughout the procedure. Columns were preconditioned with 1 ml of 100% MeOH, before equilibration with 1 ml of H2O, Non-neutralized brain lysates were loaded onto the columns. The loaded samples were then washed twice with the first wash performed with 1 ml of 5% MeOH, and the second wash with 1 ml of 30% MeOH. Finally, the Aβ was eluted from the columns and into 100×30 mm glass tubes, with a solution of 90% MeOH with 2% NH4OH. […]

Aβ42 [7] = assay: In vivo efficacy: Aβ42 lowering in brain (ELISA); design: species or system mouse; conditions: brain soluble fraction; typical protocol: single oral dose, overnight fasted animals, after four hours
Excerpt: as §2, §3, §4, §5, §6

SMILES | effect on the Notch-processing activity of the γ-secretase-complex (production of NICD) [1] | IC50 (Aβtotal [2]) | IC50 (Aβ42 [3]) | IC50 (Aβ42 [4]) | IC50 (Aβtotal [5]) | melting point | Aβtotal (% Ctrl) _Mean (Aβtotal [6]) | Aβ42 (% Ctrl) _Mean (Aβ42 [7])
C[C@H](NC(=O)Cc1cc(F)cc(F)c1)C(=O)NC(C(=O)OC(C)(C)C)c1ccccc1 (stereo partly drawn) [DAPT, (2S)-N-[2-(3,5-difluorophenyl)acetyl]-L-alanyl-2-phenyl-glycine 1,1-dimethylethyl ester] | blocked |  |  |  |  |  |  | 
CC(C)[C@H](O)C(=O)N[C@@H](C)C(=O)N[C@@H]1C(=O)N(C)CCc2ccccc21 [Semagacestat, (2S)-2-hydroxy-3-methyl-N-[(1S)-1-methyl-2-oxo-2-[[(1S)-2,3,4,5-tetrahydro-3-methyl-2-oxo-1H-3-benzazepin-1-yl]amino]ethyl]-butanamide] | blocked |  |  |  |  |  |  | 
COc1ccc(C)c(-n2nc3c(Nc4ccc(-c5cnc(C)o5)nc4)cccc3c2C)c1 [Compound 45, 2-(5-methoxy-2-methylphenyl)-3-methyl-N-[6-(2-methyl-5-oxazolyl)-3-pyridinyl]-2H-indazol-7-amine] | did not show an effect | > 3 µM | 0.023 µM | 0.018 µM | 6.76 µM |  |  | 
COc1nc(Nc2cccc3cn(CC(F)(F)F)nc23)ccc1-n1cnc(C)c1 [Compound 54, N-[6-methoxy-5-(4-methyl-1H-imidazol-1-yl)-2-pyridinyl]-2-(2,2,2-trifluoroethyl)-2H-indazol-7-amine] |  |  |  | 0.066 µM | > 10 µM | 206 °C | 109 % Ctrl | 72 % Ctrl
